# Patent US20250295656A1, “COMBINATION OF LURBINECTEDIN AND IMMUNE CHECKPOINT INHIBITORS” (priority 2020, published 2025)
# System: MPA/DMBA-induced tumours
# Assay: MPA/DMBA-induced breast cancer model
# Assay type: in vivo, C57BL/6 mice
# Conditions: palpable MPA/DMBA-induced tumours; systemic injection
# Procedure: Medroxyprogesterone acetate (MPA) pellets (50 mg, 90-day release) were implanted subcutaneously into the interscapular area of immunocompetent C57BL/6 mice. Then the animals received 1 mg dimethylbenzantracene (DMBA) administered by oral gavage 6× during 7 weeks. When spontaneous tumours became palpable mice were randomly assigned to receive 0.14 mg/Kg lurbinectedin (Lurbi) alone or in combination with double immune checkpoint blockade with monoclonal antibodies targeting CTLA-4 and PD-1 at day 6, 9 and 12 post treatment (a). The tumour area and overall survival were measured regularly until ethical endpoints were reached (b,c,d). Data were analyzed with TumGrowth (https://github.com/kroemerlab). […]
# Six- to eight-week-old female wild-type C57BL/6 and nu/nu mice were obtained from Envigo France (Huntingdon, UK) and were kept in the animal facility at the Gustave Roussy Campus Cancer in a specific pathogen-free and temperature-controlled environment with 12 h day, 12 h night cycles and received food and water ad libitum. […] When tumours became palpable, 0.18 mg/Kg lurbinectedin was injected sequentially once a week intravenously into the tail vein and animal well-being and tumour growth were monitored. […] Animals were monitored and tumour growth documented regularly until end-points were reached. […]
smiles,measurement,value
COc1ccc2[nH]c3c(c2c1)CCN[C@]31CS[C@@H]2c3c(OC(C)=O)c(C)c4c(c3[C@H](COC1=O)N1[C@@H]2[C@H]2c3c(cc(C)c(OC)c3O)C[C@@H]([C@@H]1O)N2C)OCO4 [lurbinectedin],overall survival,increased
same,tumour growth,significantly reduced
